The results in this text go back to patent publication US11453640B2, “Small molecules for disrupting the super elongation complex and inhibiting transcription elongation for cancer therapy” (NORTHWESTERN UNIVERSITY, priority 2018, dated 2022).

One assay deals with Pol II. Description: Pol II ChIP-seq, promoter-proximal pausing in HEK293T cells. The format is cell-based, human. Here is the method: FIG. 2. Small molecule disruption of SEC increases promoter-proximal pausing. (A) SEC inhibitors increase Pol II occupancy near the transcription start sites (TSS) of the HSPA8 and SRSF4 genes. Pol II ChIP-seq was performed in HEK293T cells with 20 μM SEC inhibitors KL-1 and KL-2 for 6 hr. […] (B) Heatmap analysis of Pol II occupancy at SEC-occupied genes in cells treated with KL-1 and KL-2. SEC inhibition results in increased Pol II occupancy at promoter-proximal regions of genes occupied by SEC. Rows are sorted by Pol II occupancy in the DMSO condition and metaplots of Pol II occupancy are shown at the bottom. Corresponding AFF1 and AFF4 occupancy (rpm) in the vehicle-treated condition is shown. […] The pausing index is calculated based on the ratio of Pol II occupancy around the TSS to Pol II occupancy in the gene body. […]
Chromatin Immunoprecipitation Sequencing. […] ChIP-seq reads were aligned to the Drosophila genome (UCSC dm3) or human genome (UCSC hgl9). Alignments were processed with Bowtie version 1.1.2, allowing only uniquely mapping reads with up to two mismatches within the 50 bp read. The resulting reads were extended to 150 bp toward the interior of the sequenced fragment and normalized to total reads aligned (reads per million, r.p.m.). […] P-values were calculated with a two-sided Kolmogorov-Smirnov test. […]

For assay [1], the system named is Tat-induced HIV genome activation in J-Lat 6.3 cells. The assay can be described thus: Tat-induced HIV genome activation in J-Lat 6.3 cells (GFP, FACS). The format is cell-based, human. The note with it: 20 μM, 10 nM PMA, 17 hr. Here is the method:
FIG. 12, related to FIG. 5. SEC inhibitors block transcription elongation in SEC-dependent rapid response models. […] (B) Gene Ontology analysis of the 136 identified heat shock-induced genes in HCT-116 cells. (C) Workflow of Tat-induced HIV genome activation in J-Lat 6.3 cells. J-Lat 6.3 cells contain an integrated copy of the HIV genome that has GFP replacing HIV nef and could be activated by Phorbol-12-Myristate-13-Acetate (PMA). J-Lat 6.3 cells were treated with vehicle or 20 μM SEC inhibitor along with PMA to activate the HIV genome transcription, which could be monitored by flow cytometry analysis. (D-E) SEC inhibitors block Tat-induced HIV genome activation in J-Lat 6.3 cells. (D) FACS analysis of J-Lat 6.3 cells treated with 10 nM PMA and SEC inhibitors for 17 hr. […] Unpaired two-way ANOVA was used to compare the groups between DMSO and SEC inhibitors. ***, p<0.001. Data are represented as Mean+/−SD. […]
Induction of J-Lat 6.3 Cells. […] Cells were washed in PBS and GFP fluorescence was measured with a FACSVantage instrument (Becton Dickinson, San Jose, Calif.). […] A two-parameter analysis to distinguish GFP-derived fluorescence from background fluorescence was used: GFP was measured in FL1 and cellular autofluorescence was monitored in FL2. The percentage of GFP-positive cells was calculated based on live cells (Jordan et al., 2003).

Take `COc1cccc(C(=O)CC(=O)C(=O)Nc2cc(Cl)ccc2C)c1` [KL-1, N-(5-chloro-2-methylphenyl)-4-oxo-4-(3-methoxyphenyl)-2-oxobutanamide]: in the assay on Pol II, the “promoter-proximal pausing (pausing index, ECDF)” value is “could increase promoter-proximal pausing”. In the assay on Pol II (20 μM, 6 hr, HSPA8 and SRSF4 loci), the “Pol II occupancy at promoter-proximal regions” value is “increased Pol II occupancy at the promoter-proximal regions”. For the same compound, in assay [1], the “GFP expression after PMA induction” value is recorded as “strong inhibition of GFP expression”.
